# Assay results reported in patent US20120172344A1, “INSULIN-PRODUCING CELL INDUCER, GLUCOSE INTAKE ENHANCER, AND THERAPEUTIC AGENT FOR DIABETES OR DIABETES COMPLICATIONS” (KYUSHU UNIVERSITY, NATIONAL UNIVERSITY CORPORATION, priority 2009, published 2012).
# Tested on: muscles (soleus muscle) of Tg23 mice
# Assay: Experimental Example 3: glucose (2-deoxy-D-glucose) intake of soleus muscles
# Assay type: in vivo, mouse
# Conditions: isolated soleus muscles of WT and Tg mice incubated in KRB buffer with vs without insulin, 10 minutes at 30° C.
# Experimental: Mice were sacrificed, and extensor digitorum longus (EDL) muscles and soleus muscles were quickly removed and processed. Both ends of each of the muscles were tied with suture (silk 4-0), and mounted on an incubation apparatus. First, the muscles were preincubated for 20 minutes in 6 ml of Krebs-Ringer bicarbonate (KRB) buffer (117 mM NaCl, 4.7 mM KCl, 2.5 mM CaCl2, 1.2 mM KH2PO4, 1.2 mM MgSO4, 24.6 mM NaHCO3, pH 7.5) containing 2 mM pyruvate. Then, the muscles were incubated in KRB buffer in presence or absence of insulin.
# Immediately after muscle incubation, the muscles were transferred to KRB buffer containing 1 mM 2-deoxy-D-[^3H]glucose (1.5 μCi/ml) and 7 mM D-[^14C]mannitol (0.3 μCi/ml) (PerkinElmer Life Sciences) at 30° C., and incubated again for 10 minutes. When using insulin, a buffer containing insulin was used for incubation in a similar manner.
# Glucose transport was terminated by dipping the muscles in KRB buffer containing 80 μmol/L cytochalasin B at 4° C., and then the muscles were frozen in liquid nitrogen. The muscles were weighed, and digested by incubating in 250 μl of 1 M NaOH at 80° C. for 10 minutes. Digests were neutralized with 250 μl of 1 M HCl. […] Radioactivity in aliquots of the digested muscle was determined by liquid scintillation counting for dual labels, and extracellular and intracellular spaces were calculated. […]
substance,measurement,value
insulin,amount of glucose intake of muscles in presence (+) of insulin,increased
